Assay results from paper PMC4940736 (Scientific Reports, 2016).
Several values for one entry are separate records, joined by “and”; a condition that tells them apart may be missing. Equal values may be shown once.

B1: Ebola virus nucleoprotein, residues 36-450 (EBOV NP 36-450) (domain or fragment)
chain: VRQRVIPVYQVNNLEEICQLIIQAFEAGVDFQESADSFLLMLCLHHAYQGDYKLFLESGAVKYLEGHGFRFEVKKRDGVKRLEELLPAVSSGKNIKRTLAAMPEEETTEANAGQFLSFASLFLPKLVVGEKACLEKVQRQIQVHAEQGLIQYPTAWQSVGHMMVIFRLMRTNFLIKFLLIHQGMHMVAGHDANDAVISNSVAQARFSGLLIVKTVLDHILQKTERGVRLHPLARTAKVKNEVNSFKAALSSLAKHGEYAPFARLLNLSGVNNLEHGLFPQLSAIALGVATAHGSTLAGVNVGEQYQQLREAATEAEKQLQQYAESRELDHLGLDDQEKKILMNFHQKKNEISFQQTNAMVTLRKERLAKLTEAITAASLPKTSGHYDDDDDIPFPGPINDDDNPGHQDDDPTDSQ
B2: Marburg virus nucleoprotein core domain (MARV NP, amino acids 19-370) (domain or fragment)
chain: RNKKVILFDTNHQVSICNQIIDAINSGIDLGDLLEGGLLTLCVEHYYNSDKDKFNTSPVAKYLRDAGYEFDVIKNADATRFLDVSPNEPHYSPLILALKTLESTESQRGRIGLFLSFCSLFLPKLVVGDRASIEKALRQVTVHQEQGIVTYPNHWLTTGHMKVIFGILRSSFILKFVLIHQGVNLVTGHDAYDSIISNSVGQTRFSGLLIVKTVLEFILQKTDSGVTLHPLVRTSKVKNEVASFKQALSNLARHGEYAPFARVLNLSGINNLEHGLYPQLSAIALGVATAHGSTLAGVNVGEQYQQLREAAHDAEVKLQRRHEHQEIQAIAEDDEERKILEQFHLQKTEITH

Legend:
[1] = target: T1, EBOV NP (amino acids 36–351) (Zaire ebolavirus, UniProt P18272); type: binding, Ebola virus
[2] = target: T2, MARV NP (amino acids 19–370) (Lake Victoria marburgvirus, UniProt P27588); type: binding, Marburg virus
[3] = target: T1, EBOV NP (amino acids 36–351); type: binding, Ebola virus; remark: listed apart in the source
[4] = target: T2, MARV NP (amino acids 19–370); type: binding, Marburg virus; remark: listed apart in the source
[5] = target: T3, EBOV NP (Zaire ebolavirus, UniProt P18272); type: binding, Ebola virus
[6] = target: T4, MARV NP (Lake Victoria marburgvirus, UniProt P27588); type: binding, Marburg virus
[7] = target: T3, EBOV NP; type: binding, Ebola virus; remark: listed apart in the source
[8] = target: T4, MARV NP; type: binding, Marburg virus; remark: listed apart in the source
[9] = target: EBOV NP (residues 36–351) (Zaire ebolavirus, UniProt P18272); type: biochemical, Ebola virus
[10] = target: MARV NP (residues 19–370) (Lake Victoria marburgvirus, UniProt P27588); type: biochemical, Marburg virus
[11] = target: T1, EBOV NP (amino acids 36–351); type: binding, Ebola virus; remark: listed apart in the source
[12] = target: T2, MARV NP (amino acids 19–370); type: binding, Marburg virus; remark: listed apart in the source
[13] = target: oligomeric EBOV NP 36–450 / ssRNA (Zaire ebolavirus, UniProt P18272); assay: biochemical
[14] = target: the molecule itself; assay: SEC
[15] = target: the molecule itself; assay: SEC-MALS

Molecule | S/N ratio (peak intensity protein incubation sample vs control) [1] | S/N ratio (peak intensity protein incubation sample vs control) [2] | Corr response (SPR) [5] | Corr response (SPR) [6] | △Tm [7] | △Tm [8] | also measured
O=C1C[C@@H](c2ccc(O[C@@H]3O[C@H](CO)[C@@H](O)[C@H](O)[C@H]3O)cc2)Oc2cc(O)ccc21 [GC12, Liquiritin] | 1.31±0.27 | 1.87±0.38 | – | – | – | – | –
C=CC(C)(C)c1cc(/C=C/C(=O)c2ccc(O)cc2)c(OC)cc1O [GC13, Licochalcone A] | 5.61±1.11 | 6.54±0.52 | 43.8 RU | 29.2 RU | −3.2 ± 0.3 °C | 0.7 ± 0.6 °C | BF% (fraction of compound associated with the NP protein) [3]: 0.3% ± 0.0%; S/N [3]: 6.0 ± 1.3; BF% (fraction of compound associated with the NP protein) [4]: 0.1% ± 0.1%; S/N [4]: 11.0 ± 1.9; Monomer (%) [9]: 100%; Monomer (%) [10]: 29.0%; Oligomer(%) >1000 kDa [10]: 2.6%; Tetramer (%) [10]: 68.3%; increase of tetramer formation [10]: > 2 fold
Liquiritin apioside [GC1] | 1.37±0.28 | 1.85±0.35 | 3.1 RU | 2.0 RU | −0.5 ± 0.2 °C | −0.2 ± 0.3 °C | S/N AVE [11]: 1.07; VIP [11]: 2.03; S/N AVE [12]: 1.53; VIP [12]: 5.68
O=c1cc(-c2ccc(O)cc2)oc2c([C@@H]3OC[C@H](O)[C@H](O)[C@H]3O)c(O)c([C@@H]3O[C@H](CO)[C@@H](O)[C@H](O)[C@H]3O)c(O)c12 [GC3, Schaftoside] | 1.47±0.30 | 1.67±0.31 | 2.9 RU | 2.8 RU | −0.6 ± 0.1 °C | −0.4 ± 0.3 °C | –
CC1(C)[C@@H](O[C@H]2O[C@H](C(=O)O)[C@@H](O)[C@H](O)[C@H]2O[C@@H]2O[C@H](C(=O)O)[C@@H](O)[C@H](O)[C@H]2O)CC[C@]2(C)[C@H]3C(=O)C=C4[C@@H]5C[C@@](C)(C(=O)O)CC[C@]5(C)CC[C@@]4(C)[C@]3(C)CC[C@@H]12 [GC6, Glycyrrhizin] | 1.84±0.12 | 1.46±0.73 | – | – | 0.1 ± 0.2 °C | −0.2 ± 0.3 °C | –
O=C(/C=C/c1ccc(O)cc1)c1ccc(O[C@@H]2O[C@H](CO)[C@@H](O)[C@H](O)[C@H]2O)cc1O [GC4, Neoisoliquiritin] | 1.46±0.29 | 1.59±0.41 | – | – | 0.1 ± 0.2 °C | 0.2 ± 0.3 °C | –
COc1ccc(-c2coc3cc(O[C@@H]4O[C@H](CO)[C@@H](O)[C@H](O)[C@H]4O)ccc3c2=O)cc1 [GC5, Ononin] | 1.34±0.31 | 1.18±0.43 | – | – | −0.2 ± 0.3 °C | 0.0 ± 0.5 °C | –
COc1ccc(-c2coc3cc(O)ccc3c2=O)cc1O [GC9, Calycosin] | 1.21±0.25 | 1.60±0.36 | – | – | – | – | –
O=C1C[C@@H](c2ccc(O)cc2)Oc2cc(O[C@@H]3O[C@H](CO)[C@@H](O)[C@H](O)[C@H]3O)ccc21 [GC2, Neoliquiritin] | 1.31±0.27 | 1.87±0.38 | 2.0 RU | 1.1 RU | 0.0 ± 0.0 °C | 0.2 ± 0.3 °C | Monomer (%) [9]: 100%; Monomer (%) [10]: 66.3%; Oligomer(%) >1000 kDa [10]: 4.0%; Tetramer (%) [10]: 29.7%
CC1(C(=O)O)CCC2(C)CCC3(C)C(=CC(=O)C4C5(C)CCC(O)C(C)(C)C5CCC43C)C2C1 (stereo not drawn) [GC7, 18β-Glycyrrhetinic acid] | 2.62±0.46 | 2.79±0.34 | 128 RU | 35.8 RU | −9.2 ± 0.4 °C | −1.1 ± 0.1 °C | BF% (fraction of compound associated with the NP protein) [3]: 11.0% ± 1.1%; S/N [3]: 2.7 ± 0.3; BF% (fraction of compound associated with the NP protein) [4]: 16.9% ± 4.1%; S/N [4]: 2.3 ± 0.4; decrease of the protein melting temperature [7]: 9 °C; Oligomer(%) <1000 kDa [9]: 68.7%; Monomer (%) [10]: 71.0% and 84.5%; Oligomer(%) >1000 kDa [10]: 6.2% and 6.9%; IC50 [13]: ~160 µM
O=C1C[C@@H](c2ccc(O)cc2)Oc2cc(O)ccc21 [GC8, Liquiritigenin] | 0.96±0.22 | 1.28±0.18 | – | – | – | – | –
CC1(C)[C@@H](O)CC[C@]2(C)[C@H]3C(=O)C=C4[C@H]5C[C@@](C)(C(=O)O)CC[C@]5(C)CC[C@@]4(C)[C@]3(C)CC[C@@H]12 [GC10, 18α-Glycyrrhetinic acid] | 2.62±0.46 | 2.79±0.34 | 8.8 RU | 5.2 RU | −0.8 ± 0.4 °C | −0.2 ± 0.3 °C | BF% (fraction of compound associated with the NP protein) [3]: 0.1% ± 0.0%; S/N [3]: 1.2 ± 0.1; BF% (fraction of compound associated with the NP protein) [4]: 0.9% ± 0.5%; S/N [4]: 1.8 ± 0.1; Monomer (%) [9]: 64.0%; Oligomer(%) >1000 kDa [9]: 36.0%; Monomer (%) [10]: 63.3%; Oligomer(%) >1000 kDa [10]: 0.5%; Tetramer (%) [10]: 36.2%
O=C(/C=C/c1ccc(O)cc1)c1ccc(O)cc1O [GC11, Isoliquiritigenin] | 1.11±0.16 | 1.08±0.04 | – | – | – | – | –
O=C(/C=C/c1ccc(O[C@@H]2O[C@H](CO)[C@@H](O)[C@H](O)[C@H]2O)cc1)c1ccc(O)cc1O [GC14, Isoliquiritin] | 0.49±0.02 | 1.61±0.19 | – | – | – | – | –
B1 | – | – | – | – | – | – | binding result [14]: binds
B2 | – | – | – | – | – | – | stoichiometry N [15]: 4
